Test results reported in PMC2193345 (The Journal of Experimental Medicine, 2001).

Legend:
Type in all cases: cell-based
CRTH2 [1] = biological target: T1, CRTH2 (Homo sapiens, UniProt Q9Y5Y4); experiment: 3H-PGD2 competition binding, K562/CRTH2 cells
T1 sequence (Q9Y5Y4 1-395): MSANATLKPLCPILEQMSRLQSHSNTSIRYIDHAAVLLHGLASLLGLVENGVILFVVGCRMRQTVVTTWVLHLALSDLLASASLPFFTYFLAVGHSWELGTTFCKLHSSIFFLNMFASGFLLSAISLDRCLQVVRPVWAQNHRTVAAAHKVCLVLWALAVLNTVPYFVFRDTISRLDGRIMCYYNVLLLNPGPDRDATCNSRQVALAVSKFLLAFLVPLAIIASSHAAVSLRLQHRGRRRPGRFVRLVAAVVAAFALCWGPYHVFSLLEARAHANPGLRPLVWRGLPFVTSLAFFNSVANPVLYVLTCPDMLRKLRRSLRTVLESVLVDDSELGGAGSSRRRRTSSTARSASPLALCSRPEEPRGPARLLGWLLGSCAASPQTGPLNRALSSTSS

DP [2] = biological target: T2, DP (Homo sapiens, UniProt Q13258); experiment: 3H-PGD2 competition binding, K562/DP cells
T2 sequence (Q13258 1-359): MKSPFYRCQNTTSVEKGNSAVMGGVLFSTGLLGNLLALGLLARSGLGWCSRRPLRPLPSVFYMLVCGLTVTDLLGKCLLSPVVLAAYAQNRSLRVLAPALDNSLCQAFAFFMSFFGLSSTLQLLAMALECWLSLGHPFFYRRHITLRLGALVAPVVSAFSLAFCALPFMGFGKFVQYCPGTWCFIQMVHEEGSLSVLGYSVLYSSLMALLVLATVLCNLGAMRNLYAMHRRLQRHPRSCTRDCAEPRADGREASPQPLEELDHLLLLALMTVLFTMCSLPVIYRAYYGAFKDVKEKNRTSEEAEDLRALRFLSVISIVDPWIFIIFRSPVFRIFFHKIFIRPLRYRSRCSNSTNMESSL

CRTH2 [3] = biological target: T1, CRTH2; experiment: 3H-PGD2 saturation binding
DP [4] = biological target: T2, DP; experiment: 3H-PGD2 saturation binding

Structure (SMILES)	Ki (CRTH2 [1]) [µM]	Ki (DP [2]) [µM]	Kd (CRTH2 [3]) [µM]	Kd (DP [4]) [µM]
CCCCC/C=C/C=C1/C(=O)C=C[C@@H]1C/C=C\CCCC(=O)O [15-deoxy-Δ^12,14-PGJ2]	2.3	> 30		
CCCCCC(=O)CC[C@H]1C(=O)C[C@H](O)[C@@H]1C/C=C\CCCC(=O)O [DK-PGD2, 13,14-dihydro-15-keto-PGD2]	0.16 ± 0.035	> 30		
CCCCC[C@H](O)/C=C/C=C\C=C\C=C\[C@@H](O)[C@@H](O)CCCC(=O)O [LXA4]	> 30	> 30		
O=C(O)CCCCCC[C@H]1C(=O)NC(=O)N1CC[C@@H](O)C1CCCCC1 [BW245C]	> 100	0.05 ± 0.02		
CCCCC[C@H](O)/C=C/[C@@H]1[C@@H](C/C=C\CCCC(=O)O)[C@@H](O)C[C@@H]1O [11β-PGF2α]	20	1.2		
CCCCC/C=C\C[C@@H](O)/C=C/C=C/C=C\[C@@H](O)CCCC(=O)O [LTB4]	> 30	> 30		

Continued, values first:

Ki (CRTH2 [1]) [µM]	Ki (DP [2]) [µM]	Kd (CRTH2 [3]) [µM]	Kd (DP [4]) [µM]	Structure (SMILES)
2	> 30			CCCCC[C@H](O)/C=C/[C@@H]1[C@@H](C/C=C\CCCC(=O)O)[C@@H](O)C[C@H]1O [PGF2α]
7.1	5.2			CCCCC[C@H](O)C/C=C1/C(=O)C=C[C@@H]1C/C=C\CCCC(=O)O [Δ^12-PGJ2]
> 30	> 30			CCCCC[C@H](O)/C=C/[C@@H]1[C@@H](C/C=C\CCCC(=O)O)[C@H]2CO[C@@H]1C2 [U46619]
3.1	2.3			CCCCC[C@H](O)/C=C/[C@H]1[C@H](O)CC(=O)[C@@H]1C/C=C\CCCC(=O)O [PGE2]
0.46 ± 0.12	0.27 ± 0.046			CCCCC[C@H](O)/C=C/[C@H]1C(=O)C[C@H](O)[C@@H]1C/C=C\CCCC(=O)OC [PGD2 methyl ester]
0.061 ± 0.023	0.045 ± 0.017	0.0313	0.0377	CCCCC[C@H](O)/C=C/[C@H]1C(=O)C[C@H](O)[C@@H]1C/C=C\CCCC(=O)O [PGD2]
> 30	> 30			CCCCC[C@H](O)/C=C/[C@H]1C=CC(=O)[C@@H]1C/C=C\CCCC(=O)O [PGA2]
0.46 ± 0.16	0.064 ± 0.013			CCCCC[C@H](O)/C=C/[C@H]1C(=O)C=C[C@@H]1C/C=C\CCCC(=O)O [PGJ2]
